Experimental data taken from paper PMC4724696 (Acta Pharmaceutica Sinica. B, 2016).

Assays:
Format in all cases: cell-based
A375 = test: Cell proliferation assay; conditions: Homo sapiens, A-375, 72 h, read-out: IC50 in cancer cell lines
SK-OV-3 = test: Cell proliferation assay; conditions: Homo sapiens, SK-OV-3, 72 h, read-out: IC50 in cancer cell lines
BxPC3 = test: Cell proliferation assay; conditions: Homo sapiens, BXPC-3, 72 h, read-out: IC50 in cancer cell lines
[1] = test system: acetylation of histones H3, H4 and tubulin in HCT-116 colorectal cancer cells; test: Western Blot analysis of Ac-H3, Ac-H4 and Ac-tubulin; conditions: HCT-116 cells, various concentrations, 24 h

IC50 (A375): 1860 ± 420 nM
IC50 (SK-OV-3): 3570 ± 740 nM
IC50 (BxPC3): 2240 ± 610 nM
SMILES: O=C(CCCCCCC(=O)Nc1ccccc1)NO [SAHA, Vorinostat]
acetylation of histones H3, H4 and tubulin [1]: Increased acetylated histones and tubulin levels
